Measured values published in ChEMBL document CHEMBL4715725, “Structure-activity relationship studies on acremomannolipin A, the potent calcium signal modulator with a novel glycolipid structure 4: Role of acyl side chains on d-mannose” (Eur J Med Chem, 2016).
Active and inactive are the calls of the source. No cut-off for these calls is given here.

test system: Schizosaccharomyces pombe; experiment: Suppression of Cl-sensitive growth defect in Schizosaccharomyces pombe harboring h+leu1 ura4-D18 ppb1::ura4+ mutant assessed as colony formation at 100 uM measured after 3 days in presence of MgCl2 by disc filter paper; assay type: functional, organism-based; conditions: time 3.0 day

| Structure (SMILES) | Activity |
| --- | --- |
| CCCCCCCCCCCCCCCC(=O)O[C@@H]1[C@H](OC[C@@H](O)[C@@H](O)[C@H](O)[C@H](O)CO)O[C@H](COC(=O)CCCCC)[C@@H](OC(=O)CCCCC)[C@@H]1OC(=O)CCCCC | Active |
| CCCCCC(=O)OC[C@H]1O[C@@H](OC[C@@H](O)[C@@H](O)[C@H](O)[C@H](O)CO)[C@@H](OC(=O)CCCCC)[C@@H](OC(=O)CCCCC)[C@@H]1OC(=O)CCCCC | Active |
| CCCCCCCCCCC(=O)O[C@@H]1[C@H](OC[C@@H](O)[C@@H](O)[C@H](O)[C@H](O)CO)O[C@H](COC(=O)CCCCC)[C@@H](OC(=O)CCCCC)[C@@H]1OC(=O)CCCCC | Active |
| CCCCC(=O)OC[C@H]1O[C@@H](OC[C@@H](O)[C@@H](O)[C@H](O)[C@H](O)CO)[C@@H](OC(=O)CCCC)[C@@H](OC(=O)CCCC)[C@@H]1OC(=O)CCCC | Active |
| CCCCCCCC(=O)O[C@@H]1[C@H](OC[C@@H](O)[C@@H](O)[C@H](O)[C@H](O)CO)O[C@H](COC(=O)CCCCC)[C@@H](OC(=O)CCCCC)[C@@H]1O | inactive |
| CCCCCCCC(=O)O[C@@H]1[C@H](OC[C@@H](O)[C@@H](O)[C@H](O)[C@H](O)CO)O[C@H](CO)[C@@H](O)[C@@H]1OC(=O)CCCCC | inactive |
| CCCCCCCC(=O)O[C@@H]1[C@H](OC[C@@H](O)[C@@H](O)[C@H](O)[C@H](O)CO)O[C@H](COC(=O)CCCCCC)[C@@H](OC(=O)CCCCCC)[C@@H]1OC(=O)CCCCCC | Active |
| CCCCCCCCCCCC(=O)O[C@@H]1[C@H](OC[C@@H](O)[C@@H](O)[C@H](O)[C@H](O)CO)O[C@H](COC(=O)CCCCC)[C@@H](OC(=O)CCCCC)[C@@H]1OC(=O)CCCCC | Active |
| CCCCCC(=O)OC[C@H]1O[C@@H](OC[C@@H](O)[C@@H](O)[C@H](O)[C@H](O)CO)[C@@H](OC(=O)CCC)[C@@H](OC(=O)CCCCC)[C@@H]1OC(=O)CCCCC | Active |
| CCCCCCC(=O)O[C@@H]1[C@H](OC[C@@H](O)[C@@H](O)[C@H](O)[C@H](O)CO)O[C@H](COC(=O)CCCCC)[C@@H](OC(=O)CCCCC)[C@@H]1OC(=O)CCCCC | Active |
| CCCC(=O)OC[C@H]1O[C@@H](OC[C@@H](O)[C@@H](O)[C@H](O)[C@H](O)CO)[C@@H](OC(=O)CCC)[C@@H](OC(=O)CCC)[C@@H]1OC(=O)CCC | Active |
| CCCCCCC(=O)OC[C@H]1O[C@@H](OC[C@@H](O)[C@@H](O)[C@H](O)[C@H](O)CO)[C@@H](OC(=O)CCCCCC)[C@@H](OC(=O)CCCCCC)[C@@H]1OC(=O)CCCCCC | Active |
| CCCCCCCC(=O)O[C@@H]1[C@H](OC[C@@H](O)[C@@H](O)[C@H](O)[C@H](O)CO)O[C@H](COC(=O)CC)[C@@H](OC(=O)CC)[C@@H]1OC(=O)CC | Active |
| CCCCCCCC(=O)O[C@@H]1[C@H](OC[C@@H](O)[C@@H](O)[C@H](O)[C@H](O)CO)O[C@H](COC(=O)CCC)[C@@H](OC(=O)CCC)[C@@H]1OC(=O)CCC | Active |
| CCCCCCCC(=O)OC[C@H]1O[C@@H](OC[C@@H](O)[C@@H](O)[C@H](O)[C@H](O)CO)[C@@H](OC(=O)CCCCCCC)[C@@H](OC(=O)CCCCCCC)[C@@H]1OC(=O)CCCCCCC | Active |
| CCCCCCCCCC(=O)O[C@@H]1[C@H](OC[C@@H](O)[C@@H](O)[C@H](O)[C@H](O)CO)O[C@H](COC(=O)CCCCC)[C@@H](OC(=O)CCCCC)[C@@H]1OC(=O)CCCCC | Active |
| CCCCCCCCC(=O)O[C@@H]1[C@H](OC[C@@H](O)[C@@H](O)[C@H](O)[C@H](O)CO)O[C@H](COC(=O)CCCCC)[C@@H](OC(=O)CCCCC)[C@@H]1OC(=O)CCCCC | Active |
| CCCCCCCC(=O)O[C@@H]1[C@H](OC[C@@H](O)[C@@H](O)[C@H](O)[C@H](O)CO)O[C@H](COC(=O)CCCC)[C@@H](OC(=O)CCCC)[C@@H]1OC(=O)CCCC | Active |
| CCCCCC(=O)OC[C@H]1O[C@@H](OC[C@@H](O)[C@@H](O)[C@H](O)[C@H](O)CO)[C@@H](OC(=O)CC)[C@@H](OC(=O)CCCCC)[C@@H]1OC(=O)CCCCC | Active |
| CCCCCC(=O)OC[C@H]1O[C@@H](OC[C@@H](O)[C@@H](O)[C@H](O)[C@H](O)CO)[C@@H](O)[C@@H](OC(=O)CCCCC)[C@@H]1OC(=O)CCCCC | inactive |
| CCC(=O)OC[C@H]1O[C@@H](OC[C@@H](O)[C@@H](O)[C@H](O)[C@H](O)CO)[C@@H](OC(=O)CC)[C@@H](OC(=O)CC)[C@@H]1OC(=O)CC | Active |
| CCCCCCCCCCCCCC(=O)O[C@@H]1[C@H](OC[C@@H](O)[C@@H](O)[C@H](O)[C@H](O)CO)O[C@H](COC(=O)CCCCC)[C@@H](OC(=O)CCCCC)[C@@H]1OC(=O)CCCCC | Active |
| CCCCCCCC(=O)O[C@@H]1[C@H](OC[C@@H](O)[C@@H](O)[C@H](O)[C@H](O)CO)O[C@H](COC(=O)CCCCC)[C@@H](OC(=O)CCCCC)[C@@H]1OC(=O)CCCCC | Active |
| CCCCCC(=O)OC[C@H]1O[C@@H](OC[C@@H](O)[C@@H](O)[C@H](O)[C@H](O)CO)[C@@H](OC(=O)CCCC)[C@@H](OC(=O)CCCCC)[C@@H]1OC(=O)CCCCC | Active |
